# Measured values published in EP4420661B1, “SMALL MOLECULES TARGETING GLYCOPROTEIN VI AS ANTIPLATELET AGENTS FOR USE IN THE PREVENTION AND/OR TREATMENT OF THROMBOSIS AND ASSOCIATED PATHOLOGIES” (Universidade de Santiago de Compostela, priority 2023, dated 2024).
# Key:
# [1] = physchem; details: 37 °C, aqueous buffer, kinetic from dmso stock
# Description: (§5) Solubility was determined by nephelometry to assess its potential impact on the bioassays at active concentrations.
# (§6) Then, said compounds were incubated for 2 hours at 37°C and read in a NEPHELOstar Plus (BMG LABTECH).
# [2] = system: human platelets; test: intracellular Ca+2 mobilization assay, CRP-activated washed platelets (FLIPR Calcium 4); assay type: cell-based; details: Platelet, calcium mobilization in human platelets, read-out: % Inhibition of CRP effect at 1µM, Mean
# Description: An intracellular Ca^+2 mobilization assay was used to test the activity of the ligands in platelets. This assay measures the changes in calcium in real time by fluorophore dye Calcium 4, providing a useful way to characterize platelet activation by GPVI signaling [Barrachina et al. (2021)].
# Washed platelets (5x10E6) were incubated with FLIPR Calcium 4 reagent (Molecular Devices LLC, San Jose, CA, USA) in a 384-well transparent bottom plate (Greiner Bio-One International GmbH, Kremsmünster, Austria) and supplemented with Probenecid (Invitrogen™, Carlsbad, CA, USA) 0.07% for 1 h at 37 °C. Platelets were co-incubated for 10 min with the tested compounds and inhibitors of secondary mediators (2 U/mL apyrase and 10 microM indomethacin (Sigma-Aldrich, Saint Louis, MO, USA)) under nonaggregating conditions (9 microM eptifibatide (Cayman Chemicals, Ann Arbor, MI, USA)). Then, the GPVI-specific agonist Collagen-Related Peptide (CRP) was added to the platelet suspension at different doses. Both potential GPVI inhibitors and CRP were automatically dispensed by FDSS7000EX Functional Drug Screening System (Hamamatsu Photonics, Hamamatsu, Japan). Intracellular Ca^2+ mobilization was assessed by measuring fluorescence changes ([…] wavelengths) in real time for 15 min after the addition of the agonist. 100% was expressed as maximal Ca^2+ release in platelets treated with the agonist CRP. To determine IC50, compounds were tested at 9 different concentrations in duplicates starting from 10 uM and performing 1:3 serial dilutions. The analysis of the data was performed with GraphPad Prism® software (version 6.0e, March 2014) (GraphPad Software, San Diego, CA, USA) by carrying out a nonlinear regression fit for log(inhibitor) vs. relative CRP activity using a Hill slope of -1, and top and bottom constraints of 100 and 0, respectively.
# [3] = target: T1, GPVI (Homo sapiens, UniProt Q9HCN6); test: label-free biophysical binding assay based on dynamic mass redistribution (DMR), immobilized GPVI; details: for interaction with GPVI, Mean: DMR response; for interaction profile with GPVI (in words): concentration-response
# T1 sequence (Q9HCN6 21-267 limits assumed): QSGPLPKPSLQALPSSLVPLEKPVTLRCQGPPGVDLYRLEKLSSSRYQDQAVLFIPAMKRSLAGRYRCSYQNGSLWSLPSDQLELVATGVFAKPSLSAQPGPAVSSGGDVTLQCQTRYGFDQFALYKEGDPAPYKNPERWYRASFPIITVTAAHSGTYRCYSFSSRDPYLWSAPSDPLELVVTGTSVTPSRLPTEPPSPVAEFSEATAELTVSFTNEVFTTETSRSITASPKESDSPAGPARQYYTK
# From the text: A biophysical assay to test direct interaction with GPVI was developed by using a label-free methodology based on dynamic mass redistribution (DMR).
# This protocol consists of immobilizing the target protein in a surface by chemical means and then measure the refractory index of a light directed to the bottom of the surface, which contains a sensor. It has been used previously for other targets to determine the potency of ligands such as peptides and molecules [Akhter et al., (2017) and Álvarez-Coiradas et al., (2020)].
# Briefly, EnSpire LFB high sensitivity plates (PerkinElmer 6057460, USA) were activated with 400 mM EDC (N-(3-dimethylaminopropyl)-N'- ethylcarbodiimide hydrochloride) (Sigma Aldrich, UK) and 100 mM sulfo-NHS (sulfo-N-hydroxysulfosuccinimide) (Thermo Fisher, USA) diluted in ultrapure water for 30 min at room temperature. Microplates were subsequently washed with ultrapure water. GPVI protein was immobilized (25 µg/ml) in 20 mM sodium acetate buffer, pH 5.5. After an overnight incubation at 4 °C, the microplate was wa- shed with PBS with 0.005% Tween-20, pH 7.4 (assay buffer). Baseline was read after three hours on EnSpireTM 2300 Multilabel Plate Reader (PerkinElmer, Singapore). Compounds were added to the microplate, incubated for 1 h and the final read was performed in the EnSpireTM 2300 Multilabel Plate Reader. Recombinant CRP and assay buffer were employed as a positive and a negative control, respectively.
# Compounds were assayed by means of concentration-response curves with concentrations between 100 µM and 0.4 µM (1:3 serial dilutions in triplicates), while CRP was assayed similarly starting with 7µg/ml top dose and a total of 6 concentrations (1:2 serial dilutions in triplicates). Response (pm) was obtained by subtracting the baseline measurement from the final read.
# [4] = system: human platelets; test: platelet spreading assay on CRP (phalloidin staining, confocal microscopy); assay type: cell-based; details: 10µM; CRP 1µg/mL; Figure 4
# Description: Platelet spreading experiments were carried out to assess the potency of the compounds of formula (I), exemplified by compounds (If)and (Ih).
# Platelets can change from a rounded, non-adherent form to adhere and flatten shape when exposed to ligands. This "spreading" effect can lead to the formation of cytoskeletal protein rearrangement. Platelet adhesion and extent of spreading (area covered) can be quantified.
# Briefly, human platelets from healthy individuals were isolated and washed. Then, platelets were incubated with the inhibitors at 10µM for 5 min at room temperature and then for 45 min at 37°C in coverslips coated with 1µg/mL of agonist (CRP).
# The images of platelet shape given by phalloidin staining were acquired by confocal fluorescence microscopy and the area analyzed by ImageJ [Onselaer et al., (2020)].
# [5] = system: human platelets; test: platelet aggregation assay, CRP-induced; assay type: cell-based; details: 10 µM; CRP 1 µg/mL; Figure 2
# Description: Platelet aggregation assays were carried out to assess the potency of the active compounds as previously described [Barrachina et al. (2021)].
# Briefly, human platelets from at least =7 healthy individuals were isolated and washed. Then, the suspension was incubated with the compounds at 10 µM at 37 ∘C for 4 min in a Chrono-log® 490-X aggregometer (Chrono-log Corporation, Havertown, PA, USA). After that, platelets were stimulated with the agonist CRP at 1 µg/mL for 5 min.
# [6] = system: human platelets; test: platelet aggregation selectivity assay (agonists collagen, rhodocytin, thrombin); assay type: cell-based; details: 10 µM
# Description: In addition, an assessment of the selectivity of the active compound (Ic)at 10 µM was carried out based on aggregation assays. Briefly, human platelets from healthy individuals were isolated and washed. The agonists used in this selectivity assay were collagen, rhodocytin, and thrombin.
# [7] = solubility by nephelometry; details: 37 °C, aqueous buffer, kinetic from dmso stock
# Description: as §5, §6
# [8] = * from Dehring et al. (2004); cited from earlier work
# [9] = metabolic stability, rat microsomes; assay type: in vitro ADME
# Description: (§1) Microsomes from Tebu-bio Xenotech were employed in the assay, having a content of 20 mg/ml of protein. The following quantities were added to each well of a 96-well microplate. Table 6: Metabolic stability assay.
# (§2) Plates were incubated at 37°C and 75 µL samples were taken at 0, 10, 20, 40 and 60 minutes.
# (§3) Samples were transferred to a microplate and 75 µl Acetonitrile + IS(Rolipram) were added for inactivating the microsomes, and 30 µl of H2O with 0.5% formic acid for improving the chromatographic conditions and kept at 4°C. When all the samples were taken the plate was centrifuged at […] for 30 min at 15°C. Stationary phase: ACQUITY BEH C18 1.7µm 2.1x50mm (Waters) Mobile phase: A: 0.1% formic; B: acetonitrile+0.1% formic acid Gradient: Table 6: UPLC gradient / Metabolic stability assay
# (§4) Metabolic stability was calculated from the logarithm of the remaining compound at each of the times evaluated.
# [10] = metabolic stability, human microsomes; assay type: in vitro ADME
# Description: as §1, §2, §3, §4
# [11] = metabolic stability, mouse microsomes; assay type: in vitro ADME
# Description: Samples were transferred to a microplate and 75 µl Acetonitrile + IS(Rolipram) were added for inactivating the microsomes, and 30 µl of H2O with 0.5% formic acid for improving the chromatographic conditions and kept at 4°C. When all the samples were taken the plate was centrifuged at 46000 g for 30 min at 15°C. Stationary phase: ACQUITY BEH C18 1.7µm 2.1x50mm (Waters) Mobile phase: A: 0.1% formic; B: acetonitrile+0.1% formic acid Gradient: Table 6: UPLC gradient / Metabolic stability assay
# [12] = metabolic stability, dog microsomes; assay type: in vitro ADME
# Description: as §1, §2, §3, §4
compound,measurement,setting,value
O=C(Cc1ccc2c(c1)OCCO2)Nc1nc(-c2ccccc2)cs1 [Compound (Ia)],solubility at 2 h,[1]; pbs with 1% dmso,5.4 µM
same,inhibition at 1 µM,[2],53.7%
same,"interaction with GPVI, Mean",[3]; Compound concentration (1µM),10.8 pm
same,"interaction with GPVI, Mean",[3]; Compound concentration (10µM),19.81 pm
O=C(Cc1ccc2c(c1)OCCO2)Nc1nc(-c2ccc(Cl)cc2)cs1 [Compound (Ib)],platelet spreading on CRP (in words),[4],inhibition of platelet spreading on CRP
same,solubility at 2 h,[1]; pbs with 1% dmso,50 µM
same,inhibition at 1 µM,[2],15.9%
same,"interaction with GPVI, Mean",[3]; Compound concentration (1µM),13.76 pm
same,"interaction with GPVI, Mean",[3]; Compound concentration (10µM),20.47 pm
same,inhibition of platelet aggregation (in words),[5],consistent inhibition of platelet aggregation
O=C(Cc1ccc2c(c1)OCCO2)Nc1nc(-c2ccc(Br)cc2)cs1 [Compound (Ic)],platelet spreading on CRP (in words),[4],inhibition of platelet spreading on CRP
same,solubility at 2 h,[1]; pbs with 1% dmso,51.9 µM
same,inhibition at 1 µM,[2],34%
same,"interaction with GPVI, Mean",[3]; Compound concentration (1µM),12.37 pm
same,"interaction with GPVI, Mean",[3]; Compound concentration (10µM),25.42 pm
same,"platelet aggregation, platelets exposed to collagen (in words)",[6]; agonist collagen,consistent inhibition of platelet aggregation
same,platelet aggregation induced by rhodocytin (in words),[6]; agonist rhodocytin,unchanged
same,platelet aggregation induced by thrombin (in words),[6]; agonist thrombin,unchanged
same,inhibition of platelet aggregation (in words),[5],consistent inhibition of platelet aggregation
O=C(Cc1ccc2c(c1)OCCO2)Nc1nc(-c2ccc3c(c2)CCCC3)cs1 [Compound (Id)],solubility at 2 h,[1]; pbs with 1% dmso,21.9 µM
same,inhibition at 1 µM,[2],36%
same,"interaction with GPVI, Mean",[3]; Compound concentration (1µM),17.38 pm
same,"interaction with GPVI, Mean",[3]; Compound concentration (10µM),28.66 pm
O=C(Cc1ccc2c(c1)OCCO2)Nc1nc(-c2ccc3ccccc3c2)cs1 [Compound (Ie)],solubility at 2 h,[1]; pbs with 1% dmso,22.5 µM
same,inhibition at 1 µM,[2],24.6%
same,"interaction with GPVI, Mean",[3]; Compound concentration (1µM),6.50 pm
same,"interaction with GPVI, Mean",[3]; Compound concentration (10µM),25.16 pm
same,inhibition of platelet aggregation (in words),[5],consistent inhibition of platelet aggregation
"C[C@H]1O[C@@H](O[C@H]2[C@@H](O)C[C@H](O[C@H]3[C@@H](O)C[C@H](O[C@H]4CC[C@@]5(C)[C@H](CC[C@@H]6[C@@H]5C[C@@H](O)[C@]5(C)[C@@H](C7=CC(=O)OC7)CC[C@]65O)C4)O[C@@H]3C)O[C@@H]2C)C[C@H](O)[C@@H]1O [Digoxin, reference compound]",solubility at 2 h,[7],96.9 µM
same,Reported solubility,[8],59.3* µM
"COc1cc2nc(N3CCN(C(=O)c4ccco4)CC3)nc(N)c2cc1OC [Prazosin, reference compound]",solubility at 2 h,[1],77.2 µM
same,Reported solubility,[8],26.3* µM
"CC(=O)[C@H]1CC[C@H]2[C@@H]3CCC4=CC(=O)CC[C@]4(C)[C@H]3CC[C@]12C [Progesterone, reference compound]",solubility at 2 h,[1],5.1 µM
same,Reported solubility,[8],3.7* µM
"Cc1ccc2nc(NC(=O)Cc3ccc4c(c3)OCCO4)sc2c1 [Ref. compound A, reference compound]","interaction with GPVI, Mean",[3]; Compound concentration (1µM),-9.78 pm
same,"interaction with GPVI, Mean",[3]; Compound concentration (10µM),1.91 pm
same,interaction profile with GPVI (in words),[3]; DMR,did not show a good interaction profile
"O=C(Cc1ccc2c(c1)OCCO2)Nc1nc2c(Cl)cccc2s1 [Ref. compound B, reference compound]","interaction with GPVI, Mean",[3]; Compound concentration (1µM),6.77 pm
same,"interaction with GPVI, Mean",[3]; Compound concentration (10µM),-16.01 pm
same,interaction profile with GPVI (in words),[3]; DMR,did not show a good interaction profile
"C[C@]12CC[C@H]3[C@@H](CCC4=CC(=O)CC[C@@]43C)[C@@H]1CC[C@@H]2O [Testosterone, reference compound]",% remanent (*),"[9]; Rat microsomes, (*) sampling time 60 min",0.14%
same,half-life,"[9]; rat, rat microsomes",0.9 min
same,t1/2,[10],12.95 min
same,% remanent (*),[10]; (*) sampling time 60 min,4.02%
same,t1/2,[11],4.76 min
same,% remanent (*),[11]; (*) sampling time 60 min,0.06%
same,% remanent (*),"[12]; Dog microsomes, (*) sampling time 60 min",49.1%
same,half-life,"[12]; dog, dog microsomes",59.9 min
same,microsomal CLint,"[12]; dog, dog microsomes",11.8 µL/min/mg
collagen related peptide [CRP],interaction profile with GPVI (in words),[3],robust dose-dependent response
